≈ marks a conversion by molar mass, not a printed value.
Columns and labels:
Huh-7 [1] = assay: Selectivity index, ratio of CC50 for human THLE2 cells to CC50 for human HuH7 cells; assay type: functional
[2] = Cytotoxicity against human HuH7 cells assessed as decrease in cell viability after 72 hrs by MTT assay; assay type: functional; details: Huh-7, 72 h
[3] = Cytotoxicity against human THLE2 cells assessed as decrease in cell viability after 72 hrs by MTT assay; assay type: toxicity, cell-based; details: thle-2, 72 h
[4] = Cytotoxicity against human PH5CH cells assessed as decrease in cell viability after 72 hrs by MTT assay; assay type: toxicity, cell-based
Huh-7 [5] = assay: Selectivity index, ratio of CC50 for human PH5CH cells to CC50 for human HuH7 cells; assay type: functional
[6] = Solubility of the compound in ethanol solution; assay type: physicochemical
[7] = Solubility of the compound in ethyl acetate solution; assay type: physicochemical
[8] = Solubility of the compound in methylene chloride solution; assay type: physicochemical
[9] = Drug level in mouse liver microsomes treated with IHVR-04042 assessed as CYP450-mediated compound formation measured at 60 mins; assay type: ADME; details: 1 h
[10] = Drug level in human liver microsomes treated with IHVR-04042 assessed as CYP450-mediated compound formation measured at 60 mins; assay type: ADME; details: 1 h
[11] = Aqueous solubility of the compound at pH 4; assay type: physicochemical; details: buffer
[12] = Volume of distribution at steady state in CD-1 mouse at 2 mg/kg, iv; assay type: ADME, organism-based; details: in vivo, read-out: Vdss
[13] = Stability in human liver microsomes assessed as parent compound remaining measured at 60 mins; assay type: ADME; details: read-out: Stability
[14] = Cmax in CD-1 mouse at 10 mg/kg, po; assay type: ADME, organism-based; parameters: dose 10 mg/kg, route oral; details: in vivo
[15] = Half life in CD-1 mouse at 2 mg/kg, iv; assay type: ADME, organism-based; details: in vivo
[16] = Half life in CD-1 mouse at 10 mg/kg, po; assay type: ADME, organism-based; details: in vivo
[17] = Drug metabolism in mouse liver microsomes assessed as CYP450-mediated 4-(pyridin-2-yl)-2-(pyrimidin-2-ylamino)thiazole-5-carboxylic acid formation measured at 60 mins; assay type: ADME; details: 1 h
[18] = Tmax in CD-1 mouse at 10 mg/kg, po; assay type: ADME, organism-based; details: in vivo
[19] = Tmax in CD-1 mouse at 2 mg/kg, iv; assay type: ADME, organism-based; details: in vivo
[20] = Oral bioavailability in CD-1 mouse at 10 mg/kg; assay type: ADME, organism-based; details: in vivo
[21] = AUClast in CD-1 mouse at 10 mg/kg, po; assay type: ADME, organism-based; details: in vivo
[22] = AUClast in CD-1 mouse at 2 mg/kg, iv; assay type: ADME, organism-based; details: in vivo
[23] = Drug metabolism in human liver microsomes assessed as CYP450-mediated 4-(pyridin-2-yl)-2-(pyrimidin-2-ylamino)thiazole-5-carboxylic acid formation measured at 60 mins; assay type: ADME; details: 1 h
[24] = Aqueous solubility of the compound at pH 7.4; assay type: physicochemical; details: buffer
[25] = Stability in mouse liver microsomes assessed as parent compound remaining measured at 60 mins; assay type: ADME; details: read-out: Stability
[26] = Drug level in mouse liver microsomes treated with isopropyl 4-(pyrazin-2-yl)-2-(pyrimidin-2-ylamino)thiazole-5-carboxylate assessed as CYP450-mediated compound formation measured at 60 mins; assay type: ADME; details: 1 h
[27] = Drug level in human liver microsomes treated with isopropyl 4-(pyrazin-2-yl)-2-(pyrimidin-2-ylamino)thiazole-5-carboxylate assessed as CYP450-mediated compound formation measured at 60 mins; assay type: ADME; details: 1 h
[28] = Cytotoxicity against human hepatic cancer cells derived from HCC patient assessed as change in cell proliferation by measuring response rate at 1 uM after 48 hrs by Ki-67 immunostaining based assay; assay type: functional, Cancer cell lines
[29] = Drug uptake in CD-1 mouse liver at 2.5 mg/kg, po; assay type: ADME, organism-based; details: in vivo
[30] = AUClast in CD-1 mouse at 1 mg/kg, iv; assay type: ADME, organism-based; details: in vivo
[31] = AUClast in CD-1 mouse at 2.5 mg/kg, po; assay type: ADME, organism-based; details: in vivo
[32] = Drug metabolism in human liver microsomes assessed as CYP450-mediated 4-(pyrazin-2-yl)-2-(pyrimidin-2-ylamino)thiazole-5-carboxylic acid formation measured at 60 mins; assay type: ADME; details: 1 h
[33] = Drug metabolism in mouse liver microsomes assessed as CYP450-mediated 4-(pyrazin-2-yl)-2-(pyrimidin-2-ylamino)thiazole-5-carboxylic acid formation measured at 60 mins; assay type: ADME; details: 1 h
[34] = Tmax in CD-1 mouse at 1 mg/kg, iv; assay type: ADME, organism-based; details: in vivo
[35] = Half life in CD-1 mouse at 1 mg/kg, iv; assay type: ADME, organism-based; details: in vivo
[36] = Cmax in CD-1 mouse at 2.5 mg/kg, po; assay type: ADME, organism-based; parameters: dose 2.5 mg/kg, route oral; details: in vivo
[37] = Oral bioavailability in CD-1 mouse at 2.5 mg/kg; assay type: ADME, organism-based; details: in vivo
[38] = Tmax in CD-1 mouse at 2.5 mg/kg, po; assay type: ADME, organism-based; details: in vivo
[39] = Volume of distribution at steady state in CD-1 mouse at 1 mg/kg, iv; assay type: ADME, organism-based; details: in vivo, read-out: Vdss

| Compound | Selectivity Index (Huh-7 [1]) | CC50 [2] [µM] | CC50 [3] [µM] | CC50 [4] [µM] | Selectivity Index (Huh-7 [5]) | other results |
| --- | --- | --- | --- | --- | --- | --- |
| CCOC(=O)c1sc(Nc2ncccn2)nc1-c1ncccc1C | 1.07 | 46.1 | 49.1 | 50 |  |  |
| CC(C)OC(=O)c1sc(Nc2ncccn2)nc1-c1ncccn1 | 30.96 | 1.62 | 50 | 50 | 30.96 |  |
| CC(C)OC(=O)c1sc(N(COP(=O)(OC(C)(C)C)OC(C)(C)C)c2ncccn2)nc1-c1cnccn1 | 51.28 | 0.98 | 50 | 50 | 51.28 | solubility [6]: Soluble; solubility [7]: Soluble; solubility [8]: Soluble |
| CC(C)OC(=O)c1sc(Nc2ncccn2)nc1-c1ccccn1 | 123.39 | 0.41 | 50 | 49.8 |  |  |
| CCOC(=O)Cc1sc(Nc2ncccn2)nc1-c1ccccn1 | 35.94 | 1.39 | 50 | 50 | 35.94 |  |
| O=C(O)c1sc(Nc2ncccn2)nc1-c1ccccn1 |  |  |  |  |  | Drug metabolism [9]: Metabolite_Detected; Drug metabolism [10]: Metabolite_Detected |
| c1ccc(-c2csc(NCc3ncccn3)n2)nc1 | 1.22 | 40.5 | 49.6 | 49.8 |  |  |
| CCOC(=O)CCc1sc(Nc2ncccn2)nc1-c1ccccn1 | 5.1 | 2.05 | 10.5 | 10.1 | 4.93 |  |
| CCOC(=O)c1sc(Nc2ncccn2)nc1-c1ccccn1 | 253.954 | 0.18 |  |  | 214.328 | solubility [11]: 112.84 µM (≈ 36.9 µg/mL); Vd [12]: 1.45 L/kg; remaining at 1 h [13]: 63.1%; Cmax [14]: 0.0941 µg/mL; half-life [15]: 14.4 min; half-life [16]: 115 min; Drug metabolism [17]: Metabolite_Detected; Tmax [18]: 34.8 min; Tmax [19]: 0 h; bioavailability [20]: 10%; AUClast [21]: 19.5 ng·mL·h; AUClast [22]: 224 ng·mL·h; Drug metabolism [23]: Metabolite_Detected; solubility [24]: 23.84 µM (≈ 7.8 µg/mL); remaining at 1 h [25]: 43.3% |
| CC(C)OC(=O)OCN(c1ncccn1)c1nc(-c2cnccn2)c(C(=O)OC(C)C)s1 | 528.17 | 0.095 | 50 | 50 | 528.17 | solubility [6]: Soluble; solubility [7]: Soluble; solubility [8]: Soluble |
| CCOC(=O)c1sc(Nc2ncccn2)nc1-c1cnccn1 | 80.06 | 0.59 | 47.1 | 50 | 85.03 |  |
| CC(C)OC(=O)c1sc(Nc2ncccn2)nc1-c1ccncn1 | 38.11 | 1.21 | 46.2 | 50 | 41.24 |  |
| CCOC(=O)c1sc(Nc2ncccn2)nc1-c1cc(C(F)(F)F)ccn1 | 90.32 | 0.17 | 15 | 9.34 | 56.24 |  |
| CCOCc1sc(Nc2ncccn2)nc1-c1ccccn1 | 13.08 | 3.19 | 41.8 | 39 | 12.23 |  |
| CCOC(=O)Cc1sc(NCc2ncccn2)nc1-c1ccccn1 | 1.01 | 49.4 | 50 | 50 | 1.01 |  |
| CCOCc1sc(NCc2ncccn2)nc1-c1ccccn1 | 1.11 | 44.8 | 49.6 | 50 |  |  |
| CCOC(=O)c1sc(NCc2ncccn2)nc1-c1ccccn1 | 1 | 50 |  |  | 1 |  |
| O=C(O)c1sc(Nc2ncccn2)nc1-c1cnccn1 |  |  |  |  |  | Drug metabolism [26]: Metabolite_Detected; Drug metabolism [27]: Metabolite_Detected |
| CC(C)OC(=O)c1sc(N(COP(=O)(OC(C)(C)C)OC(C)(C)C)c2ncccn2)nc1-c1ccccn1 | 111.42 | 0.38 | 42.2 | 50 | 131.93 | solubility [6]: Soluble; solubility [7]: Soluble; solubility [8]: Soluble |
| O=C(O)CCc1sc(Nc2ncccn2)nc1-c1ccccn1 | 1.87 | 14.1 | 26.4 | 17.7 | 1.25 |  |
| COCCOCN(c1ncccn1)c1nc(-c2cnccn2)c(C(=O)OC(C)C)s1 |  | 50 | 50 | 50 | 1 | solubility [6]: Soluble; solubility [7]: Soluble; solubility [8]: Soluble |
| CCOC(=O)c1sc(Nc2ncccn2)nc1-c1ccncn1 | 25.46 | 1.6 | 40.8 | 40 | 24.97 |  |
| CC(C)OC(=O)c1sc(Nc2ncccn2)nc1-c1cnccn1 | 471.7 | 0.11 | 50 | 50 | 471.7 | Activity [28]: 38%; Drug uptake [29]: 33 ng/g; solubility [11]: 6.35 µM (≈ 2.17 µg/mL); AUClast [30]: 142 ng·mL·h; remaining at 1 h [13]: 70.9%; AUClast [31]: 21.6 ng·mL·h; Drug metabolism [32]: Metabolite_Detected; Drug metabolism [33]: Metabolite_Detected; Tmax [34]: 0 h; half-life [35]: 26.4 min; Cmax [36]: 0.0487 µg/mL; bioavailability [37]: 15.2%; Tmax [38]: 26.4 min; solubility [24]: 5.2 µM (≈ 1.78 µg/mL); remaining at 1 h [25]: 36.2%; Vd [39]: 3.49 L/kg |
| c1ccc(-c2csc(Nc3ncccn3)n2)nc1 | 35.45 | 1.1 |  |  | 40.294 |  |
